From patent US8114897B2, “Pesticidal composition and method for controlling a pest” (priority 2007, dated 2012)

What was measured:
[1] = system: cockroaches Blattella germanica; assay: Test Example: spray test on hidden cockroaches, mortality rate; assay type: in vivo; conditions: 4.2 mL test formulation solution (ingredient concentrations % (W/V) per Table 1, in diethylene glycol monomethylether) sprayed in 70 cm cubic glass box; 10 cockroaches; transferred after 10 minutes; counted after 3 days; average of duplicate
From the text: Suitable amounts of 4-methoxymethyl-2,3,5,6-tetrafluorobenzyl(1R)-trans-3-(2-cyano-1-propenyl)-2,2-dimethylcyclopropanecarboxylate (isomer ratio, based on double bond, Z/E: approximately 2/1) (hereinafter, referred to as compound A) and/or clothianidin (manufactured by Sumika Takeda Agrochemicals Co.) are mixed with diethylene glycol monomethylether, to give a test formulation solution containing the compound A and/or clothianidin at particular concentrations (see Table 1).
A triangular prism wooden container (regular triangle having a base of 3.5 cm and a height of 15 cm) containing 10 cockroaches Blattella germanica (5 males and 5 females) hidden therein was placed in the bottom center of a cubic glass box having a base of 70 cm square. 4.2 Milliliters of the test formulation solution was sprayed on the glass box with a spray gun. In 10 minutes after the spraying, the cockroaches were transferred into a plastic container containing food and water and left there for 3 days. The number of live cockroaches was then counted, to give a mortality rate.

[2] = system: cockroaches Blattella germanica; assay: Referential Test Example: spray test on hidden cockroaches, mortality rate; assay type: in vivo; conditions: 4.2 mL test formulation solution (ingredient concentrations % (w/v) per Table 2, in diethylene glycol monomethylether) sprayed in 70 cm cubic glass box; 10 cockroaches; transferred after 10 minutes; counted after 3 days; average of duplicate
From the text: Suitable amounts of the compound A and either (E)-N^1-[(6-chloro-3-pyridyl)methyl]-N^2-cyano-N^1-methylacetamidine (general name: acetamiprid, hereinafter, referred to as N-cyanoacetamidine compound) or 1-(6-chloro-3-pyridylmethyl)-N-nitroimidazolidin-2-ylidene amine (general name: imidacloprid, hereinafter referred to as nitroimidazoline compound) are mixed with diethylene glycol monomethylether, to give test formulation solutions containing the compound A and either the N-cyano acetamidine or nitroimidazoline compound at particular concentrations (see Table 2).
A triangular prism wooden container (regular triangle having a base of 3.5 cm and a height of 15 cm) containing 10 cockroaches Blattella germanica (5 males and 5 females) hidden therein was placed in the bottom center of a cubic glass box having a base of 70 cm. 4.2 Milliliters of the test formulation solution was sprayed on the glass box with a spray gun. In 10 minutes after the spraying, the cockroaches were transferred into a plastic container containing food and water and left there for 3 days. The number of live cockroaches was then counted, to give a mortality rate.

Row | Compound | Mortality rate (%) [1] [%] | Mortality rate (%) [2] [%]
1 | COCc1c(F)c(F)c(COC(=O)[C@@H]2[C@@H](C=C(C)C#N)C2(C)C)c(F)c1F [compound 7, 4-methoxymethyl-2,3,5,6-tetrafluorobenzyl(1R)-trans-3-(2-cyano-1-propenyl)-2,2-dimethylcyclopropanecarboxylate] | 5 | 5
2 | CN/C(=N\[N+](=O)[O-])NCc1cnc(Cl)s1 [compound 8, 1-(2-chloro-1,3-thiazolyl)methyl-3-methyl-2-nitroguanidine] | 35 | –
3 | C/C(=N\C#N)N(C)Cc1ccc(Cl)nc1 [compound 12, (E)-N^1-[(6-chloro-3-pyridyl)methyl]-N^2-cyano-N^1-methylacetamidine] | – | 5
4 | O=[N+]([O-])NC1=NCCN1Cc1ccc(Cl)nc1 [compound 13, 1-(6-chloro-3-pyridylmethyl)-N-nitroimidazolidin-2-ylidene amine] | – | 15
